Activity calls are given as the source filed them. No cut-off for these calls is given here.
Tests used:
PC-3 [1] = test: Antiproliferative activity against human PC3 cells at 0.1 uM by SRB assay; assay type: functional
NUGC-3 [2] = test: Antiproliferative activity against human NUGC3 cells at 10 uM by SRB assay; assay type: functional
HCT-15 [3] = test: Antiproliferative activity against human HCT15 cells at 3 uM by SRB assay; assay type: functional
MDA-MB-231 [4] = test: Antiproliferative activity against human MDA-MB-231 cells at 0.1 uM by SRB assay; assay type: functional
PC-3 [5] = test: Antiproliferative activity against human PC3 cells at 3 uM by SRB assay; assay type: functional
ACHN [6] = test: Antiproliferative activity against human ACHN cells by SRB assay; assay type: functional
ACHN [7] = test: Antiproliferative activity against human ACHN cells at 1 uM by SRB assay; assay type: functional
HCT-15 [8] = test: Antiproliferative activity against human HCT15 cells at 0.3 uM by SRB assay; assay type: functional
MDA-MB-231 [9] = test: Antiproliferative activity against human MDA-MB-231 cells at 10 uM by SRB assay; assay type: functional
NCI-H23 [10] = test: Antiproliferative activity against human NCI-H23 cells at 0.3 uM by SRB assay; assay type: functional
NUGC-3 [11] = test: Antiproliferative activity against human NUGC3 cells at 0.1 uM by SRB assay; assay type: functional
MDA-MB-231 [12] = test: Antiproliferative activity against human MDA-MB-231 cells by SRB assay; assay type: functional
ACHN [13] = test: Antiproliferative activity against human ACHN cells at 3 uM by SRB assay; assay type: functional
NUGC-3 [14] = test: Antiproliferative activity against human NUGC3 cells by SRB assay; assay type: functional
NUGC-3 [15] = test: Antiproliferative activity against human NUGC3 cells at 3 uM by SRB assay; assay type: functional
MDA-MB-231 [16] = test: Antiproliferative activity against human MDA-MB-231 cells at 1 uM by SRB assay; assay type: functional
HCT-15 [17] = test: Antiproliferative activity against human HCT15 cells by SRB assay; assay type: functional
MDA-MB-231 [18] = test: Antiproliferative activity against human MDA-MB-231 cells at 3 uM by SRB assay; assay type: functional
HCT-15 [19] = test: Antiproliferative activity against human HCT15 cells at 0.1 uM by SRB assay; assay type: functional
MDA-MB-231 [20] = test: Antiproliferative activity against human MDA-MB-231 cells at 0.3 uM by SRB assay; assay type: functional
NCI-H23 [21] = test: Antiproliferative activity against human NCI-H23 cells at 0.1 uM by SRB assay; assay type: functional
PC-3 [22] = test: Antiproliferative activity against human PC3 cells at 10 uM by SRB assay; assay type: functional
PC-3 [23] = test: Antiproliferative activity against human PC3 cells at 0.3 uM by SRB assay; assay type: functional
ACHN [24] = test: Antiproliferative activity against human ACHN cells at 0.1 uM by SRB assay; assay type: functional
NCI-H23 [25] = test: Antiproliferative activity against human NCI-H23 cells by SRB assay; assay type: functional
ACHN [26] = test: Antiproliferative activity against human ACHN cells at 10 uM by SRB assay; assay type: functional
NCI-H23 [27] = test: Antiproliferative activity against human NCI-H23 cells at 1 uM by SRB assay; assay type: functional
NCI-H23 [28] = test: Antiproliferative activity against human NCI-H23 cells at 3 uM by SRB assay; assay type: functional
PC-3 [29] = test: Antiproliferative activity against human PC3 cells at 1 uM by SRB assay; assay type: functional
NUGC-3 [30] = test: Antiproliferative activity against human NUGC3 cells at 1 uM by SRB assay; assay type: functional
HCT-15 [31] = test: Antiproliferative activity against human HCT15 cells at 10 uM by SRB assay; assay type: functional
PC-3 [32] = test: Antiproliferative activity against human PC3 cells by SRB assay; assay type: functional
ACHN [33] = test: Antiproliferative activity against human ACHN cells at 0.3 uM by SRB assay; assay type: functional
NUGC-3 [34] = test: Antiproliferative activity against human NUGC3 cells at 0.3 uM by SRB assay; assay type: functional
NCI-H23 [35] = test: Antiproliferative activity against human NCI-H23 cells at 10 uM by SRB assay; assay type: functional
HCT-15 [36] = test: Antiproliferative activity against human HCT15 cells at 1 uM by SRB assay; assay type: functional
[37] = molecular target: Rho-related GTP-binding protein RhoB (Homo sapiens) (UniProt P62745); test: Transactivation of RhoB in human HeLa cells by luciferase reporter assay; assay type: cell-based
Sequence of Rho-related GTP-binding protein RhoB (Homo sapiens) (P62745 whole entry): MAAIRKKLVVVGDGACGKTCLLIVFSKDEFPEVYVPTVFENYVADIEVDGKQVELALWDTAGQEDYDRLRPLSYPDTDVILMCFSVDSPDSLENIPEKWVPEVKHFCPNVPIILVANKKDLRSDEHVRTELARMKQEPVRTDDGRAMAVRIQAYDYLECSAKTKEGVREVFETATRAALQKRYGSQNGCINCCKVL

Row | SMILES | growth, % of control at 0.1 µM (PC-3 [1]) | growth, % of control at 10 µM (NUGC-3 [2]) | growth, % of control at 3 µM (HCT-15 [3]) | growth, % of control at 0.1 µM (MDA-MB-231 [4]) | growth, % of control at 3 µM (PC-3 [5]) | GI50 (ACHN [6]) | growth, % of control at 1 µM (ACHN [7]) | growth, % of control at 0.3 µM (HCT-15 [8]) | growth, % of control at 10 µM (MDA-MB-231 [9]) | growth, % of control at 0.3 µM (NCI-H23 [10]) | growth, % of control at 0.1 µM (NUGC-3 [11]) | GI50 (MDA-MB-231 [12]) | growth, % of control at 3 µM (ACHN [13]) | GI50 (NUGC-3 [14]) | growth, % of control at 3 µM (NUGC-3 [15]) | growth, % of control at 1 µM (MDA-MB-231 [16]) | GI50 (HCT-15 [17]) | growth, % of control at 3 µM (MDA-MB-231 [18]) | GI50 (NCI-H23 [25]) | GI50 (PC-3 [32]) | also measured
1 | CCCCCCCCCCCCCCCC(=O)NCC(C)(C)C[N+](C)(C)CC | 103% | 1.32% | 85.2% | 94.4% | 4.52% | 2600 nM | 87.4% | 103% | 18.4% | 101% | 91.8% | 1540 nM | 58.9% | 430 nM | 13.8% | 82.7% | > 10000 nM | 46.6% | 1340 nM | 440 nM | growth, % of control at 0.1 µM (HCT-15 [19]): 107%; growth, % of control at 0.3 µM (MDA-MB-231 [20]): 99.8%; growth, % of control at 0.1 µM (NCI-H23 [21]): 108%; growth, % of control at 10 µM (PC-3 [22]): -11.9%; growth, % of control at 0.3 µM (PC-3 [23]): 94.2%; growth, % of control at 0.1 µM (ACHN [24]): 93.7%; growth, % of control at 10 µM (ACHN [26]): 34.5%; growth, % of control at 1 µM (NCI-H23 [27]): 85.6%; growth, % of control at 3 µM (NCI-H23 [28]): 43.1%; growth, % of control at 1 µM (PC-3 [29]): 38.5%; growth, % of control at 1 µM (NUGC-3 [30]): 38.1%; growth, % of control at 10 µM (HCT-15 [31]): 57%; growth, % of control at 0.3 µM (ACHN [33]): 92.4%; growth, % of control at 0.3 µM (NUGC-3 [34]): 90.9%; growth, % of control at 10 µM (NCI-H23 [35]): 3.85%; growth, % of control at 1 µM (HCT-15 [36]): 99.5%; Activity [37]: Active
2 | C=CC[N+]1(CC)CCN(C(=O)CCCCCCCCCCCCCCC)CC1 |  |  |  |  |  | 500 nM |  |  |  |  |  | 680 nM |  | 270 nM |  |  |  |  | 880 nM | 370 nM | Activity [37]: Active
3 | C=CC[N+](CC)(CC)CCN(C)C(=O)CCCCCCCCCCCCCCC | 92.9% | -6.2% | 55.2% | 96.1% | -14.3% | 350 nM | 30.2% | 87.9% | -6.4% | 54.8% | 101% | 440 nM | 8.1% | 270 nM | 5.3% | 38.7% | 1980 nM | 21% | 170 nM | 200 nM | growth, % of control at 0.1 µM (HCT-15 [19]): 86.1%; growth, % of control at 0.3 µM (MDA-MB-231 [20]): 92.5%; growth, % of control at 0.1 µM (NCI-H23 [21]): 81.2%; growth, % of control at 10 µM (PC-3 [22]): -19.6%; growth, % of control at 0.3 µM (PC-3 [23]): 81.8%; growth, % of control at 0.1 µM (ACHN [24]): 115%; growth, % of control at 10 µM (ACHN [26]): -18.9%; growth, % of control at 1 µM (NCI-H23 [27]): 19.3%; growth, % of control at 3 µM (NCI-H23 [28]): 10.7%; growth, % of control at 1 µM (PC-3 [29]): 0.8%; growth, % of control at 1 µM (NUGC-3 [30]): 22.9%; growth, % of control at 10 µM (HCT-15 [31]): 32%; growth, % of control at 0.3 µM (ACHN [33]): 87.7%; growth, % of control at 0.3 µM (NUGC-3 [34]): 76.9%; growth, % of control at 10 µM (NCI-H23 [35]): -15%; growth, % of control at 1 µM (HCT-15 [36]): 78.6%
